# According to patent US10722501B2 (BAYER AKTIENGESELLSCHAFT, priority 2016, dated 2020):
# Molecular target: T1, recombinant full-length human prolyl endopeptidase (PREP) (Homo sapiens, UniProt P48147)
# T1 construct: To recombinant full-length human prolyl endopeptidase (PREP, R&D-Systems, 4308-SE); purchased R&D-Systems 4308-SE
# T1 sequence (P48147 1-710): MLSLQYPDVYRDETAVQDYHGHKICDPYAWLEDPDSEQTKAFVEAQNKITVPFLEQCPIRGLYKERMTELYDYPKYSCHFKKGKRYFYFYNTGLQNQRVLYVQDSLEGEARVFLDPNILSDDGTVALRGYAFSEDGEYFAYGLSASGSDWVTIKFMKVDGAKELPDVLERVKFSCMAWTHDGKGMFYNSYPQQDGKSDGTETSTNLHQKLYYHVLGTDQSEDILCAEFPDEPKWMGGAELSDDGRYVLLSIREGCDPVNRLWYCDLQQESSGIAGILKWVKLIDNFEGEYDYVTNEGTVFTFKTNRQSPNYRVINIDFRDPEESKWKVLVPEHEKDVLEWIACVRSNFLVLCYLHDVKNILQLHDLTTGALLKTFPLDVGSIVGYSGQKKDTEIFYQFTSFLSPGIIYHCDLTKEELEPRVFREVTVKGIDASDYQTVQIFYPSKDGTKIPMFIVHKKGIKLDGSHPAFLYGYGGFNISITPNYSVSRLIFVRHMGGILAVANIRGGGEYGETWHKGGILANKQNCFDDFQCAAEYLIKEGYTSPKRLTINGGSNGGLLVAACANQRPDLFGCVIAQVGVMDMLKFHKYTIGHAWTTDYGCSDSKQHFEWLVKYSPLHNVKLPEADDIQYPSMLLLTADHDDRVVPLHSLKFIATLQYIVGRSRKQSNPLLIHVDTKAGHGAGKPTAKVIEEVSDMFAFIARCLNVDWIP
# Experiment: Biochemical human prolyl endopeptidase (PREP) assay with fluorescently labelled substrate
# Settings: substrate Z-Gly-Pro-AMC 50 μM, 32° C., 60 min; some as mean values from multiple independent determinations
# In short: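 0.4 nM (final, example) recombinant PREP in pH 7.5 Tris buffer with EDTA, GSH, BSA and Brij-35; compounds at 1 nM to 30 μM. Reaction started with 50 μM Z-Gly-Pro-AMC and followed by fluorescence (ex 360/em 465 nm) at 32° C for 60 min. IC50 interpolated from percent activity based on initial slopes.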
row,SMILES,IC50
1,"Cc1ccc(C2(Cn3nc4n(c3=O)[C@H](C(=O)N3CC[C@H](F)C3)CCC4)CC2)cc1 [Example 526, (5S)-5-{[(3S)-3-Fluoropyrrolidin-1-yl]carbonyl}-2-{[1-(4-methylphenyl)cyclopropyl]methyl}-5,6,7,8-tetrahydro[1,2,4]triazolo[4,3-a]pyridin-3(2H)-one]",0.38 nM
2,"O=C([C@@H]1CCCc2nn(Cc3ccc(Cl)c(F)c3)c(=O)n21)N1CC(F)C1 [Example 463, (5S)-2-(4-Chloro-3-fluorobenzyl)-5-[(3-fluoroazetidin-1-yl)carbonyl]-5,6,7,8-tetrahydro[1,2,4]triazolo[4,3-a]pyridin-3(2H)-one]",0.225 nM
3,"O=C([C@@H]1CCCc2nn(Cc3ccc(F)cc3F)c(=O)n21)N1CC(F)C1 [Example 486, (5S)-2-(2,4-Difluorobenzyl)-5-[(3-fluoroazetidin-1-yl)carbonyl]-5,6,7,8-tetrahydro[1,2,4]triazolo[4,3-a]pyridin-3(2H)-one]",0.465 nM
4,"O=C([C@@H]1CCC(F)(F)c2nn(Cc3ncc(Cl)cc3F)c(=O)n21)N1CC[C@H](F)C1 [Example 556, (5S)-2-[(5-chloro-3-fluoropyridin-2-yl)methyl]-8,8-difluoro-5-{[(3S)-3-fluoropyrrolidin-1-yl]carbonyl}-5,6,7,8-tetrahydro[1,2,4]triazolo[4,3-a]pyridin-3(2H)-one]",0.63 nM
5,"O=C(C1C(C(F)(F)F)CCc2nn(Cc3ccc(Cl)cn3)c(=O)n21)N1C[C@@H](F)[C@@H](F)C1 (mixture of isomers) [Example 300, (5RS,6RS)-2-[(5-Chloropyridin-2-yl)methyl]-5-{[(3R,4S)-3,4-difluoropyrrolidin-1-yl]carbonyl}-6-(trifluoromethyl)-5,6,7,8-tetrahydro[1,2,4]triazolo[4,3-a]pyridin-3(2H)-one]",19 nM
6,"O=C(C1CCCc2nn(Cc3ccc4c(c3)CCC4)c(=O)n21)N1CCCC1 (racemic) [Example 11, (5RS)-2-(2,3-Dihydro-1H-inden-5-ylmethyl)-5-(pyrrolidin-1-ylcarbonyl)-5,6,7,8-tetrahydro[1,2,4]triazolo[4,3-a]pyridin-3(2H)-one]",0.7 nM
7,"COc1ccc(Cn2nc3n(c2=O)[C@H](C(=O)N2C[C@@H](F)[C@@H](F)C2)CCC3)cc1 [Example 453, (5S)-5-{[(3R,4S)-3,4-Difluoropyrrolidin-1-yl]carbonyl}-2-(4-methoxybenzyl)-5,6,7,8-tetrahydro[1,2,4]triazolo[4,3-a]pyridin-3(2H)-one]",0.375 nM
8,"O=C([C@@H]1CCCc2nn(Cc3cccc(C(F)(F)F)n3)c(=O)n21)N1CCC(F)(F)C1 [Example 368, (5S)-5-[(3,3-Difluoropyrrolidin-1-yl)carbonyl]-2-{[6-(trifluoromethyl)pyridin-2-yl]methyl}-5,6,7,8-tetrahydro[1,2,4]triazolo[4,3-a]pyridin-3(2H)-one]",9 nM
9,"Cc1ccc(CCn2nc3n(c2=O)C(C(=O)N2CCCC2)CCC3)cc1 (racemic) [Example 57, (5RS)-2-[2-(4-Methylphenyl)ethyl]-5-(pyrrolidin-1-ylcarbonyl)-5,6,7,8-tetrahydro[1,2,4]triazolo[4,3-a]pyridin-3(2H)-one]",4.1 nM
10,"O=C([C@@H]1CCCc2nn(Cc3ccc(C(F)(F)F)nc3)c(=O)n21)N1CCSC1 [Example 503, (5S)-5-(1,3-Thiazolidin-3-ylcarbonyl)-2-{[6-(trifluoromethyl)pyridin-3-yl]methyl}-5,6,7,8-tetrahydro[1,2,4]triazolo[4,3-a]pyridin-3(2H)-one]",2 nM
11,"O=C([C@@H]1CCCc2nn(Cc3ccc(Cl)c(F)c3)c(=O)n21)N1CCC(F)(F)C1 [Example 464, (5S)-2-(4-Chloro-3-fluorobenzyl)-5-[(3,3-difluoropyrrolidin-1-yl)carbonyl]-5,6,7,8-tetrahydro[1,2,4]triazolo[4,3-a]pyridin-3(2H)-one]",0.51 nM
12,"O=C(C1CC(C(F)(F)F)Cc2nn(Cc3ccc(Cl)cn3)c(=O)n21)N1CC[C@H](F)C1 (single isomer, unassigned) [Example 315]",1.4 nM
